Our source for the IC50 values is BindingDB's records for patent US12391660 (Hangzhou Westan Pharmaceutical Technology Co., 2025).

pIC50: −log10 of the molar value.

The target in this assay is Transient receptor potential cation channel subfamily A member 1 (Homo sapiens, UniProt O75762). Kind of assay: FLIPR Assay of Inhibitory Activity on Human TRPA1. The protocol: Table 3.1: The cell analysis plate was placed in an FLIPR instrument ([…]), and the compound in the compound plate was added to the corresponding hole on the cell analysis plate (First addition) via an automatic program, and the calcium ion fluorescence signal was recorded to determine whether the compound had agonistic activity. After 10 minutes, CaCl2 (Second addition) was added a final concentration of 3 mM to each well to stimulate intracellular calcium flux signals. Ca++-dependent fluorescence signal was monitored continuously at 538 nm wavelength to analyze the inhibitory activity of the compounds.
Transient receptor potential cation channel subfamily A member 1, sequence (O75762 whole entry): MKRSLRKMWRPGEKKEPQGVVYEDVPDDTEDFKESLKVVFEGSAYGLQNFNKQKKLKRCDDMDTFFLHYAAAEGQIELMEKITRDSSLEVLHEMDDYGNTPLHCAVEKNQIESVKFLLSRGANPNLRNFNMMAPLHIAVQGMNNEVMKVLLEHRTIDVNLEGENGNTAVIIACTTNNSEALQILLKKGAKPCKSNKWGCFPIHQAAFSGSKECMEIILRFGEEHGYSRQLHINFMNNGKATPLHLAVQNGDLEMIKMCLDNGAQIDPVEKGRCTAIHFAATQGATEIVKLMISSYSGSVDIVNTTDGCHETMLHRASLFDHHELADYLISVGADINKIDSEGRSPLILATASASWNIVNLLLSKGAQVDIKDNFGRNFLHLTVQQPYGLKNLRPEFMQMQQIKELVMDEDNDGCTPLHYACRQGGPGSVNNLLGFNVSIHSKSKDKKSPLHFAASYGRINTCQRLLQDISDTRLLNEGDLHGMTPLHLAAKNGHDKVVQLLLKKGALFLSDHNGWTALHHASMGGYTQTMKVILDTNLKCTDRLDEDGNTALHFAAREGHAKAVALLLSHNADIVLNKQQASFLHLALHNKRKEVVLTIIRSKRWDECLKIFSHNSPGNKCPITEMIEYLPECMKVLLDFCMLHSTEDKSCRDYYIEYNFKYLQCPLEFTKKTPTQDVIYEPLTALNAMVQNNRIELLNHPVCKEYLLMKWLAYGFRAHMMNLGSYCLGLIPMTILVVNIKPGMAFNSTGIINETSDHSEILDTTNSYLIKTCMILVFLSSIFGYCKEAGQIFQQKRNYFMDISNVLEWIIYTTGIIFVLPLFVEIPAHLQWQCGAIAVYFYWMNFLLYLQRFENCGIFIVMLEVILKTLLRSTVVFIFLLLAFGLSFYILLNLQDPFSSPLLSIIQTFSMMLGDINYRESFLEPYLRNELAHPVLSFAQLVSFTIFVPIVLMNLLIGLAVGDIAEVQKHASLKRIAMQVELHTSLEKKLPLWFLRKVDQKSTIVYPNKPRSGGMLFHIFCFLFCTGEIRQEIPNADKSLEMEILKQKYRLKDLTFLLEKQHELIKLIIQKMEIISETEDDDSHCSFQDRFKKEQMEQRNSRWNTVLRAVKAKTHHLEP
Usually pIC50 stands for the IC50 on a negative log10 scale, so that one unit is a factor of ten. As to `O=C(N1CCN(c2cccc(C(F)(F)F)n2)CC1)C1(Nc2ccc(Cl)cc2)CCCC1` [US12391660, Compound 20], the pIC50 was 7.25.

In the case of `O=C(N1CCN(c2ccc(C(F)(F)F)nn2)CC1)C1(Nc2ccc([N+](=O)[O-])cc2)CCCC1` [US12391660, Compound 21], the pIC50 is 6.06.

Take `CN(c1ccc(C#N)cc1)C1(C(=O)N2CCC(C(C)(C)C)CC2)CCCC1` [US12391660, Compound 44]: the pIC50 is 6.55.

Compound `Cn1cc(OC2(C(=O)N3CCN(c4ccc(C(F)(F)F)cn4)CC3)CCCC2)nc1C#N` [US12391660, Compound 61] showed a pIC50 of 5.54. Compared with the last compound, the pIC50 is 1.01 log units lower.
